Structures can show the parent of a compound that is named as a salt.

T1 sequence (P98073 whole entry): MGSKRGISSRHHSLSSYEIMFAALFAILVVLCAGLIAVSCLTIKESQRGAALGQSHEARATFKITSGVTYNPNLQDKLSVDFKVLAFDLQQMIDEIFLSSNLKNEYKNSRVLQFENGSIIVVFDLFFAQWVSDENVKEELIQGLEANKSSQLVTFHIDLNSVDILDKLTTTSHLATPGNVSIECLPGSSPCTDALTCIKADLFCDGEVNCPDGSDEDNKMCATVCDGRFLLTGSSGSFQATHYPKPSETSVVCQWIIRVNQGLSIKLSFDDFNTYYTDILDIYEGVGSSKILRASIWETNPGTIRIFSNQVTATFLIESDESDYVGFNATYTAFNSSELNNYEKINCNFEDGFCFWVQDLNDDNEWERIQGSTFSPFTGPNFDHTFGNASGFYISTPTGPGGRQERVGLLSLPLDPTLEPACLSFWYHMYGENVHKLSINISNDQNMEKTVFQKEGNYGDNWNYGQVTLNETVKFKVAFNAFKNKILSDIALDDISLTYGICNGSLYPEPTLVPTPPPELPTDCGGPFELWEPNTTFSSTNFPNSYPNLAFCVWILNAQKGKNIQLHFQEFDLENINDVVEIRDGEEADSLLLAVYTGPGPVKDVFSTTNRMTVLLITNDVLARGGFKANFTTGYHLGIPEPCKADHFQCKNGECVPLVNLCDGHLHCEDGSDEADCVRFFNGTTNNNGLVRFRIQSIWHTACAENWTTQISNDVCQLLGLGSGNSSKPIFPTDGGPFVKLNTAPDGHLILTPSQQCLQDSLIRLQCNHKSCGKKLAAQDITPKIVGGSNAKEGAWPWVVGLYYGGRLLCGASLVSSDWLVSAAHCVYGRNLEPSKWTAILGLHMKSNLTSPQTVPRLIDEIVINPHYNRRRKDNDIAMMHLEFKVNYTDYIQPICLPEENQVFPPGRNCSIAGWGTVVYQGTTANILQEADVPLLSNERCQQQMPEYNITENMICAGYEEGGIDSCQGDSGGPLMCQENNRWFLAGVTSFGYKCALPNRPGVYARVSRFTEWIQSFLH

The first assay has as its target T1, Human recombinant enteropeptidase (Homo sapiens, UniProt P98073).
T1 construct: purchased ITSI-Biosciences LLC #REN-260
Briefly: Human enteropeptidase inhibitory activity (Test Example 1). The assay is classed as biochemical. To be noted: 3.3 μM test compound; inhibition rate from fluorescence intensity at 2 hours after the start of the reaction. The procedure:
Human recombinant enteropeptidase (#REN-260, ITSI-Biosciences LLC) was diluted with an assay buffer (50 mM Tricine, pH 8.0, 0.01 (w/v) %, Tween 20, 10 mM CaCl2) to prepare a 24 mU/mL enzyme solution. Subsequently, 5FAM-Abu-Gly-Asp-Asp-Asp-Lys-Ile-Val-Gly-Gly-Lys(CPQ2)-Lys-Lys-NH2 (SEQ ID NO: 1, purity: 97.2%, CPC Scientific Inc.) was diluted with the assay buffer to prepare a 2.1 μM substrate solution. A test compound is dissolved in DMSO into a 1 mM solution, and the solution was diluted by 100-fold with the assay buffer to give a compound solution. To a 384-well black plate (#784076, Greiner Bio-One), 5 μL of the compound solution and 5 μL of the substrate solution were added and mixed, and 5 μL of the enzyme solution was then added to the mixture, followed by mixing to start the reaction. The fluorescence intensity was measured with a fluorescence plate reader EnVision (The Perkin-Elmer Corp.) at an excitation wavelength of 485 nm and a fluorescence wavelength of 535 nm. The same reaction as above except that the test compound was not contained was performed (test compound non-addition group). Furthermore, the same reaction as above except that the test compound and the enzyme were not contained was performed (control group). The inhibition rate was calculated using the fluorescence intensity at 2 hours after the start of the reaction by the following expression: Inhibition rate (%)=(1−((fluorescence intensity of test compound addition group)−(fluorescence intensity of control group))/((fluorescence intensity of test compound non-addition group)−(fluorescence intensity of control group)))×100
For “diethyl (4-(((10- carbamimidamido- 13-oxo-6,7,8,13- tetrahydro- dibenzo[b,f] [1,4]dioxecin-4- yl)carbonyl)amino) benzyl)phosphorate [Example 4]”, the “3.3 μM Inhibition” value is recorded as 98%.

Staying with this assay, now noted: 3.3 μM test compound; inhibition rate from fluorescence intensity at 2 hours after the start of the reaction; read-out: 3.3 μM Inhibition.
The term inhibition denotes the change of the read-out against control, counted positive when it falls. With `N=C(N)Nc1ccc2c(c1)CCCCc1c(cccc1C(=O)NC(CC(=O)O)CC(=O)O)OC2=O` [Example 74, 3-(((3-carbamimidamido-14-oxo-5,7,8,14-tetrahydro-6H-dibenzo[b,h]oxecin-9-yl)carbony)amino)pentanedioic acid], the inhibition at 3.3 µM was 101%. Take `N=C(N)c1ccc2c(c1)CCc1c(CCC(=O)N[C@@H](CC(=O)O)C(=O)O)cccc1C(=O)O2` [Example 61, N-(3-(2-Carbamimidoyl-6-oxo-11,12-dihydro-6H-dibenzo[b,f]oxocin-10-yl)propanoyl)-L-aspartic acid trifluoroacetate]: the inhibition at 3.3 µM came to 72%. Regarding `N=C(N)Nc1ccc2c(c1)CCc1ccc(CCC(=O)N[C@@H](CC(=O)O)C(=O)O)cc1OC2=O` [Example 55, N-(3-(9-carbamimidamido-6-oxo-11,12-dihydro-6H-dibenzo[b,f]oxocin-3-yl)propanoyl)-L-aspartic acid], the inhibition at 3.3 µM turned out to be 98%. On the same count and under the same terms, to `N=C(N)Nc1ccc2c(c1)CCCOc1c(ccc(CCC(=O)N(CC(=O)O)CC(=O)O)c1C(=O)O)OC2=O` [Example 129, 3-(3-(bis(carboxy-methyl)amino)-3-oxopropyl)-10-carbamimidamido-13-oxo-6,7,8,13-tetrahydro-dibenzo[b,f] [1,4]dioxecine-4-carboxylic acid] belongs 100%; to `COc1ccc(C[C@H](NC(=O)c2c(CCC(=O)N(CC(=O)O)CC(=O)O)ccc3c2OCCCc2cc(NC(=N)N)ccc2C(=O)O3)C(=O)O)cc1` [Example 130, N-((3-(3-(bis(carboxymethyl)amino)-3-oxopropyl)-10-carbamimidamido-13-oxo-6,7,8,13-tetrahydro-dibenzo[b,f] [1,4]dioxecin-4-yl)carbonyl)-O-methyl-L-tyrosine], 99%. Still for that read-out and setting: to `N=C(N)Nc1ccc2c(c1)CCCOc1c(ccc(CCC(=O)O)c1C(=O)N(CC(=O)O)Cc1cccc(CN(CC(=O)O)CC(=O)O)c1)OC2=O` [Example 148, 3-(4-((3-((bis(carboxymethyl)amino)methyl)-benzyl) (carboxymethyl)carbamoyl)-10-carbamimidamido-13-oxo-6,7,8,13-tetrahydro-dibenzo[b,f] [1,4]dioxecin-3-yl)propanoic acid] belongs 101%; to `COC(=O)CN(C(=O)c1cccc2c1OCCCc1cc(NC(=N)N)ccc1C(=O)O2)[C@@H](CC(=O)O)C(=O)O` [Example 139, N-((10-carbamimidamido-13-oxo-6,7,8,13-tetrahydro-dibenzo[b,f] [1,4]dioxecin-4-yl)carbonyl)-N-(2-methoxy-2-oxoethyl)-L-aspartic acid], 100%; to `N=C(N)Nc1ccc2c(c1)CCCOc1c(cccc1C(=O)N(CC(=O)O)Cc1cccc(CN(CC(=O)O)CC(=O)O)n1)OC2=O` [Example 126, N-((6-((bis(carboxy-methyl)amino)methyl)pyridin-2-yl)methyl)-N-((10-carbamimidamido-13-oxo-6,7,8,13-tetrahydro-dibenzo[b,f] [1,4]dioxecin-4-yl)carbonyl)glycine], 100%.

For `N=C(N)Nc1ccc2c(c1)CCCOc1c(ccc(CCC(=O)O)c1C(=O)N[C@@H](Cc1ccc(O)cc1)C(=O)O)OC2=O` [Example 113, N-((10-carbamimidamido-3-(2-carboxyethyl)-13-oxo-6,7,8,13-tetrahydro-dibenzo[b,f] [1,4]dioxecin-4-yl)carbonyl)-L-tyrosine], the inhibition at 3.3 µM is 99%. The same measure, in the same setting: to `N=C(N)Nc1ccc2c(c1)CCCOc1c(cccc1C(=O)N[C@@H](CO)C(=O)O)OC2=O` [Example 86, N-((10-carbamimidamido-13-oxo-6,7,8,13-tetrahydro-dibenzo[b,f] [1,4]dioxecin-4-yl)carbonyl)-L-serine] belongs 101%; to `N=C(N)Nc1ccc2c(c1)CCCOc1c(CCC(=O)N[C@@H](CC(N)=O)C(=O)O)cccc1OC2=O` [Example 97, N^~2^~-(3-(10-carbamimidamido-13-oxo-6,7,8,13-tetrahydro-dibenzo[b,f] [1,4]dioxecin-4-yl)propanoyl)-L-asparagine], 100%; to `N=C(N)Nc1ccc2c(c1)CCCCc1c(CCC(=O)N[C@@H](CC(=O)O)C(=O)O)ccc(F)c1OC2=O` [Example 41, N-(3-(3-carbamimidamido-12-fluoro-14-oxo-5,7,8,14-tetrahydro-6H-dibenzo[b,h]oxacin-9-yl)propanoyl)-L-aspartic acid], 71%.

Turning to `N=C(N)Nc1ccc2c(c1)CCCCCCc1c(cccc1C(=O)N[C@@H](CC(=O)O)C(=O)O)OC2=O` [Example 77, N-((3-Carbamimidamido-16-oxo-5,7,8,9,10,16-hexahydro-6H-dibenzo[b,j]oxacyclododecin-11-yl)carbonyl)-L-aspartic acid], the inhibition at 3.3 µM turned out to be 99%. Same read-out and setting: to `N=C(N)Nc1ccc2c(c1)CCOc1c(cccc1C(=O)NCCS(=O)(=O)O)OC2=O` [Example 15, 2-(((9-carbamimidamido-6-oxo-11,12-dihydro-6H-dibenzo[b,f][1,4]dioxonin-1-yl)carbonyl)amino) ethanesulfonic acid] belongs 101%; to `N=C(N)Nc1ccc2c(c1)CCc1ccccc1OC2=O` [Example 58, 1-(6-Oxo-11,12-dihydro-6H-dibenzo[b,f]oxocin-9-yl)guanidine trifluoroacetate], 55%. Regarding `N=C(N)Nc1ccc2c(c1)CCCCc1c(cc3c(c1C(=O)NCCS(=O)(=O)O)CCO3)OC2=O` [Example 36, 2-(((3-carbamimidamido-15-oxo-5,7,8,10,11,15-hexahydro-6H-12,14-dioxabenzo[5,6]cyclodeca[1,2-f]inden-9-yl)carbonyl)amino)ethane-sulfonic acid], the inhibition at 3.3 µM came out at 94%. Still for that read-out and setting: the value for `N=C(N)c1ccc2c(c1)CCc1c(C(=O)N[C@@H](CC(=O)O)C(=O)O)cccc1C(=O)O2` [Example 62, N-((2-Carbamimidoyl-6-oxo-11,12-dihydro-6H-dibenzo[b,f]oxocin-10-yl)carbonyl)-L-aspartic acid trifluoroacetate] was 84%.

As for `N=C(N)Nc1ccc2c(c1)OCCCCOc1c(CCC(=O)N[C@@H](CC(=O)O)C(=O)O)cccc1OC2=O` [Example 42, N-(3-(3-Carbamimidamido-16-oxo-6,7,8,9-tetrahydro-16H-dibenzo[b,f][1,4,8]trioxacyclododecin-11-yl)propanoyl)aspartic acid trifluoroacetate], the inhibition at 3.3 µM is 100%. Regarding `N=C(N)c1ccc2c(c1)CCCCc1c(C(=O)N[C@@H](CC(=O)O)C(=O)O)cccc1C(=O)O2` [Example 98, N-((10-carbamimidoyl-14-oxo-5,7,8,14-tetrahydro-6H-dibenzo[b,h]oxecin-4-yl)carbonyl)-L-aspartic acid], the inhibition at 3.3 µM came out at 95%. The same measure, in the same setting: the value for `N=C(N)Nc1ccc2c(c1)OCCOc1cc(CCC(=O)N[C@@H](CC(=O)O)C(=O)O)ccc1OC2=O` [Example 53, N-(3-(3-carbamimidamido-14-oxo-6,7-dihydro-14H-dibenzo[b,h][1,4,7]trioxecin-10-yl)propanoyl) aspartic acid] was 101%. In the case of `N=C(N)Nc1ccc2c(c1)CCCOc1ccc(CCC(=O)N[C@@H](CC(=O)O)C(=O)O)cc1OC2=O` [Example 78, N-(3-(10-carbamimidamido-13-oxo-6,7,8,13-tetrahydro-dibenzo[b,f] [1,4]dioxecin-2-yl)propanoyl) aspartic acid], the inhibition at 3.3 µM turned out to be 93%.

Turning to `N=C(N)Nc1ccc2c(c1)CCCOc1c(cccc1C(=O)N(CCOCc1ccccc1)C(CC(=O)O)C(=O)O)OC2=O` (centres unmarked) [Example 137], the inhibition at 3.3 µM was 100%. Still for that read-out and setting: the value for `COc1cc2c(c(C(=O)N[C@@H](CC(=O)O)C(=O)O)c1)CCCCc1cc(NC(=N)N)ccc1C(=O)O2` [Example 67, N-((3-Carbamimidamido-11-methoxy-14-oxo-5,7,8,14-tetrahydro-6H-dibenzo[b,h]oxecin-9-yl)carbonyl)-L-aspartic acid] was 100%. Still for that read-out and setting: the value for `N=C(N)Nc1ccc2c(c1)CCCOc1c(cccc1C1=NOC(CC(=O)O)(C(=O)O)C1)OC2=O` (centres unmarked) [Example 23, 3-(10-Carbamimidamido-13-oxo-6,7,8,13-tetrahydrodibenzo[b,f][1,4]dioxecin-4-yl)-5-(carboxymethyl)-4,5-dihydro-1,2-oxazole-5-carboxylic acid] was 102%; that for `N=C(N)Nc1ccc2c(c1)CCCOc1c(cccc1C(=O)N(Cc1ccccc1)[C@@H](CC(=O)O)C(=O)O)OC2=O` [Example 107, N-benzyl-N-((10-carbamimidamido-13-oxo-6,7,8,13-tetrahydro-dibenzo[b,f] [1,4]dioxecin-4-yl)carbonyl)-L-aspartic acid] was 101%.

(Values after patent US9975903B2, “Condensed heterocyclic compound” (Takeda Pharmaceutical Company Limited, priority 2014, dated 2018).)
